# How the values were obtained:
# NCI-H716 cells = assay: In vitro GLP-1 secretion-accelerating action (active GLP-1 ELISA); format: cell-based; details: for Significant difference (p < 0.05) vs control group, amount of active GLP-1 secreted: 1 hour, Student's t-test; for Amount of active GLP-1 secreted (relative value to control group as 100), Average value: after 1 hour, group with no cyclic dipeptide = 100
# Method: (§1) In the Test Examples below, data were represented as average value±standard error. In Test Examples 1, 2, and 3, a Student's t-test was used for a statistical test, and in other Test Examples, one-way ANOVA was carried out for dispersion analysis followed by a multiple comparison test by using a Dunnet's test. […] All of these analyses were carried out by using an SPSS for Windows release 17.0 (manufactured by SPSS Inc.).
# Among the cyclic dipeptides, 92 highly water-soluble cyclic dipeptides were used in the following experiment. In each well of a Poly-L-Lysine 96-well plate, NCI-H716 cells suspended in 100 μL of a DMEM (with 10% FBS, 2 mM glutamine, and 1% antibiotics added in advance) were seeded at 0.5×10^5 cells/well, and cultured in a CO2 incubator (manufactured by ESPEC CORP.) for 48 hours. After washing with PBS(+), 100 μL of a PBS(+) solution with each cyclic dipeptide at a final concentration of 10 mM and 10 μM of Sitagliptin phosphate added therein was added to the cells. After 1 hour, the resultant solution was recovered, and the amount of active GLP-1 in the solution was measured by using the ELISA kit. In the analysis, the amount of active GLP-1 for a group with no cyclic dipeptide added was defined as 100, and relative values thereto were used.
# In each Table, cyclic dipeptides for which an in vitro active GLP-1 secretion-accelerating activity was found and was not found are listed.
# plasma active GLP-1 = assay: In vivo plasma active GLP-1 level-increasing action after oral administration; set-up: species or system mice; details: 10 mg/kg orally; for Plasma active GLP-1 level (relative value to control group as 100), Average value: male C57/BL6J mice, blood after 30 minutes, 0.5% CMC-Na group = 100; for Significant difference (p < 0.05) vs control group, plasma active GLP-1 level: mice, 30 minutes, Student's t-test
# Method: as §1
# Among the cyclic dipeptides, cyclic dipeptides for which an in vitro GLP-1 secretion-accelerating action was found and highly lipid-soluble cyclic dipeptides were used in the following experiment. Seven-week-old male C57/BL6J mice were purchased from CLEA Japan, Inc. for use, and they were subjected to an experiment after 1 week of a habituation period. Each animal was grown in an animal room with an air conditioning system (temperature: 23.5±1.0° C., humidity: 55±10 RH %, air ventilation: 12 to 15 times/hour, illumination: from 7:00 to 19:00/day).
# After the habituation period, the mice were subjected to 5.5 hours of food deprivation and 2 hours of water deprivation. Thereafter, a cyclic dipeptide dissolved or suspended in a 0.5% CMC-Na aqueous solution in 10 mg/kg was orally administered to each mouse forcibly. After 30 minutes, the blood was collected from the abdominal vena cava under anesthesia, and 1 μL of heparin sodium and 1 μL of 10 mM Sitagliptin phosphate were added to each collected blood, which was then subjected to centrifugation at 8000 rpm for 10 minutes to recover the plasma, and the plasma active GLP-1 level was measured by using the ELISA kit. In the analysis, the active GLP-1 level for a group administered with 0.5% CMC-Na aqueous solution was defined as 100, and relative values thereto were used.
# In each Table, cyclic dipeptides for which an in vivo plasma active GLP-1 level-increasing action was found and was not found are listed.
# [1] = Experiment 2, cyclic dipeptide 10 mM with 10 μM Sitagliptin phosphate
# [2] = Experiment 4, cyclic dipeptide 10 mM with 10 μM Sitagliptin phosphate
structure (smiles),measurement,setting,value
C[C@@H]1NC(=O)[C@H](CO)NC1=O [compound 25],"Significant difference (p < 0.05) vs control group, amount of active GLP-1 secreted","NCI-H716 cells; Experiment 1, 10 mM",Yes
same,"Amount of active GLP-1 secreted (relative value to control group as 100), Average value","NCI-H716 cells; Experiment 1, cyclic dipeptide 10 mM with 10 μM Sitagliptin phosphate",257
same,"Plasma active GLP-1 level (relative value to control group as 100), Average value",plasma active GLP-1; Experiment 1,158
same,"Significant difference (p < 0.05) vs control group, plasma active GLP-1 level",plasma active GLP-1; Experiment 1,Yes
O=C1N[C@@H](Cc2c[nH]c3ccccc23)C(=O)N[C@H]1Cc1c[nH]cn1 [compound 60],"Significant difference (p < 0.05) vs control group, amount of active GLP-1 secreted","NCI-H716 cells; Experiment 2, 10 mM",Yes
same,"Amount of active GLP-1 secreted (relative value to control group as 100), Average value",NCI-H716 cells; [1],260
same,"Plasma active GLP-1 level (relative value to control group as 100), Average value",plasma active GLP-1; Experiment 1,129
same,"Significant difference (p < 0.05) vs control group, plasma active GLP-1 level",plasma active GLP-1; Experiment 1,No
NCCCC[C@@H]1NC(=O)[C@H](Cc2ccccc2)NC1=O [compound 63],"Significant difference (p < 0.05) vs control group, amount of active GLP-1 secreted","NCI-H716 cells; Experiment 2, 10 mM",Yes
same,"Amount of active GLP-1 secreted (relative value to control group as 100), Average value",NCI-H716 cells; [1],220
same,"Plasma active GLP-1 level (relative value to control group as 100), Average value",plasma active GLP-1; Experiment 1,206
same,"Significant difference (p < 0.05) vs control group, plasma active GLP-1 level",plasma active GLP-1; Experiment 1,Yes
O=C(O)CC1NC(=O)C(Cc2ccc(O)cc2)NC1=O (stereo not shown) [compound 91],"Plasma active GLP-1 level (relative value to control group as 100), Average value",plasma active GLP-1; Experiment 7,181
same,"Significant difference (p < 0.05) vs control group, plasma active GLP-1 level",plasma active GLP-1; Experiment 7,No
NC(=O)CC1NC(=O)C(Cc2ccc(O)cc2)NC1=O (stereo not shown) [compound 92],"Plasma active GLP-1 level (relative value to control group as 100), Average value",plasma active GLP-1; Experiment 7,181
same,"Significant difference (p < 0.05) vs control group, plasma active GLP-1 level",plasma active GLP-1; Experiment 7,No
NC(=O)CCC1NC(=O)C(Cc2ccc(O)cc2)NC1=O (stereo not shown) [compound 93],"Plasma active GLP-1 level (relative value to control group as 100), Average value",plasma active GLP-1; Experiment 7,344
same,"Significant difference (p < 0.05) vs control group, plasma active GLP-1 level",plasma active GLP-1; Experiment 7,Yes
CC(C)CC1NC(=O)C(Cc2c[nH]cn2)NC1=O (stereo not shown) [compound 103],"Plasma active GLP-1 level (relative value to control group as 100), Average value",plasma active GLP-1; Experiment 8,94
same,"Significant difference (p < 0.05) vs control group, plasma active GLP-1 level",plasma active GLP-1; Experiment 8,No
CSCCC1NC(=O)C(C)NC1=O (stereo not shown) [compound 125],"Plasma active GLP-1 level (relative value to control group as 100), Average value",plasma active GLP-1; Experiment 9,133
CSCCC1NC(=O)CNC1=O (stereo not shown) [compound 127],"Plasma active GLP-1 level (relative value to control group as 100), Average value",plasma active GLP-1; Experiment 9,124
same,"Significant difference (p < 0.05) vs control group, plasma active GLP-1 level",plasma active GLP-1; Experiment 9,Yes
CCC(C)C1NC(=O)C(CO)NC1=O (stereo not shown) [compound 133],"Plasma active GLP-1 level (relative value to control group as 100), Average value",plasma active GLP-1; Experiment 9,133
same,"Significant difference (p < 0.05) vs control group, plasma active GLP-1 level",plasma active GLP-1; Experiment 9,Yes
CC(C)C1NC(=O)C(CC(N)=O)NC1=O (stereo not shown) [compound 141],"Plasma active GLP-1 level (relative value to control group as 100), Average value",plasma active GLP-1; Experiment 10,191
same,"Significant difference (p < 0.05) vs control group, plasma active GLP-1 level",plasma active GLP-1; Experiment 10,Yes
CCC(C)C1NC(=O)C(Cc2cnc[nH]2)NC1=O (stereo not shown) [compound 148],"Plasma active GLP-1 level (relative value to control group as 100), Average value",plasma active GLP-1; Experiment 10,259
same,"Significant difference (p < 0.05) vs control group, plasma active GLP-1 level",plasma active GLP-1; Experiment 10,Yes
CCC(C)C1NC(=O)C(CCCCN)NC1=O (stereo not shown) [compound 150],"Plasma active GLP-1 level (relative value to control group as 100), Average value",plasma active GLP-1; Experiment 10,282
same,"Significant difference (p < 0.05) vs control group, plasma active GLP-1 level",plasma active GLP-1; Experiment 10,Yes
CC(C)C1NC(=O)CNC1=O (stereo not shown) [compound 155],"Plasma active GLP-1 level (relative value to control group as 100), Average value",plasma active GLP-1; Experiment 10,55
same,"Significant difference (p < 0.05) vs control group, plasma active GLP-1 level",plasma active GLP-1; Experiment 10,No
CCC(C)C1NC(=O)C(C(C)O)NC1=O (stereo not shown) [compound 161],"Plasma active GLP-1 level (relative value to control group as 100), Average value",plasma active GLP-1; Experiment 10,282
same,"Significant difference (p < 0.05) vs control group, plasma active GLP-1 level",plasma active GLP-1; Experiment 10,Yes
CCC(C)C1NC(=O)C(CC(=O)O)NC1=O (stereo not shown) [compound 162],"Plasma active GLP-1 level (relative value to control group as 100), Average value",plasma active GLP-1; Experiment 10,259
same,"Significant difference (p < 0.05) vs control group, plasma active GLP-1 level",plasma active GLP-1; Experiment 10,Yes
CCC(C)C1NC(=O)C(CC(N)=O)NC1=O (stereo not shown) [compound 163],"Plasma active GLP-1 level (relative value to control group as 100), Average value",plasma active GLP-1; Experiment 10,327
same,"Significant difference (p < 0.05) vs control group, plasma active GLP-1 level",plasma active GLP-1; Experiment 10,Yes
CSCCC1NC(=O)C(C(C)O)NC1=O (stereo not shown) [compound 169],"Plasma active GLP-1 level (relative value to control group as 100), Average value",plasma active GLP-1; Experiment 10,282
same,"Significant difference (p < 0.05) vs control group, plasma active GLP-1 level",plasma active GLP-1; Experiment 10,Yes
O=C1NC(CS)C(=O)NC1CO (stereo not shown) [compound 180],"Plasma active GLP-1 level (relative value to control group as 100), Average value",plasma active GLP-1; Experiment 10,259
same,"Significant difference (p < 0.05) vs control group, plasma active GLP-1 level",plasma active GLP-1; Experiment 10,Yes
CCC(C)C1NC(=O)C(CCC(N)=O)NC1=O (stereo not shown) [compound 182],"Significant difference (p < 0.05) vs control group, amount of active GLP-1 secreted","NCI-H716 cells; Experiment 4, 10 mM",Yes
same,"Amount of active GLP-1 secreted (relative value to control group as 100), Average value",NCI-H716 cells; [2],445
same,"Plasma active GLP-1 level (relative value to control group as 100), Average value",plasma active GLP-1; Experiment 2,188
same,"Significant difference (p < 0.05) vs control group, plasma active GLP-1 level",plasma active GLP-1; Experiment 2,Yes
C[C@@H]1NC(=O)C2CCCN2C1=O (stereo partly shown) [compound 187],"Significant difference (p < 0.05) vs control group, amount of active GLP-1 secreted","NCI-H716 cells; Experiment 4, 10 mM",Yes
same,"Amount of active GLP-1 secreted (relative value to control group as 100), Average value",NCI-H716 cells; [2],1186
same,"Plasma active GLP-1 level (relative value to control group as 100), Average value",plasma active GLP-1; Experiment 2,217
same,"Significant difference (p < 0.05) vs control group, plasma active GLP-1 level",plasma active GLP-1; Experiment 2,Yes
NC(=O)CCC1NC(=O)C(Cc2c[nH]cn2)NC1=O (stereo not shown) [compound 191],"Significant difference (p < 0.05) vs control group, amount of active GLP-1 secreted","NCI-H716 cells; Experiment 4, 10 mM",Yes
same,"Amount of active GLP-1 secreted (relative value to control group as 100), Average value",NCI-H716 cells; [2],743
same,"Plasma active GLP-1 level (relative value to control group as 100), Average value",plasma active GLP-1; Experiment 2,247
same,"Significant difference (p < 0.05) vs control group, plasma active GLP-1 level",plasma active GLP-1; Experiment 2,Yes
O=C(O)CC1NC(=O)C(CO)NC1=O (stereo not shown) [compound 193],"Significant difference (p < 0.05) vs control group, amount of active GLP-1 secreted","NCI-H716 cells; Experiment 4, 10 mM",Yes
same,"Amount of active GLP-1 secreted (relative value to control group as 100), Average value",NCI-H716 cells; [2],509
same,"Plasma active GLP-1 level (relative value to control group as 100), Average value",plasma active GLP-1; Experiment 2,266
same,"Significant difference (p < 0.05) vs control group, plasma active GLP-1 level",plasma active GLP-1; Experiment 2,Yes
CC(C)C1NC(=O)C(CCCNC(=N)N)NC1=O (stereo not shown) [compound 194],"Significant difference (p < 0.05) vs control group, amount of active GLP-1 secreted","NCI-H716 cells; Experiment 4, 10 mM",Yes
same,"Amount of active GLP-1 secreted (relative value to control group as 100), Average value",NCI-H716 cells; [2],498
same,"Plasma active GLP-1 level (relative value to control group as 100), Average value",plasma active GLP-1; Experiment 2,237
same,"Significant difference (p < 0.05) vs control group, plasma active GLP-1 level",plasma active GLP-1; Experiment 2,Yes
CSCCC1NC(=O)C(CCCNC(=N)N)NC1=O (stereo not shown) [compound 199],"Significant difference (p < 0.05) vs control group, amount of active GLP-1 secreted","NCI-H716 cells; Experiment 4, 10 mM",Yes
same,"Amount of active GLP-1 secreted (relative value to control group as 100), Average value",NCI-H716 cells; [2],652
same,"Plasma active GLP-1 level (relative value to control group as 100), Average value",plasma active GLP-1; Experiment 2,217
same,"Significant difference (p < 0.05) vs control group, plasma active GLP-1 level",plasma active GLP-1; Experiment 2,Yes
